Experimental findings from ChEMBL document CHEMBL1201862, “PubChem BioAssay data set” (2004) are described below.

Common to all, as to test: NCI-60 cell line screen, 48 h
For experiment [1], the system named is CAKI-1.
In experiment [2] the test system is COLO 205.
The subject of experiment [3] is HCT-116.
In experiment [4] the test system is HCT-15.
The test system of experiment [5] is HOP-62.
The subject of experiment [6] is HOP-92.
The subject of experiment [7] is IGROV-1.
The subject of experiment [8] is LXFL 529.
Experiment [9] concerns M14.
For experiment [10], the system named is NCI-H522.
For experiment [11], the system named is OVCAR-4.
Experiment [12] concerns OVCAR-8.
The test system of experiment [13] is RPMI-8226.
The test system of experiment [14] is SF-268.
Experiment [15] concerns SK-MEL-5.
The test system of experiment [16] is SR.
Experiment [17] has as its system UACC-257.
The subject of experiment [18] is A498.
In experiment [19] the test system is MCF7.
Experiment [20] concerns MDA-MB-231.

The structures appear in SMILES notation.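 Growth conditions: 96-well plates. Treatment: test compound, 48 hours, 5 concentrations. Analysis: linear interpolation between bracketing concentrations; unreached endpoints set to highest concentration. GI50 = concentration required for 50% inhibition of growth.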 Calls of active or inactive are those of the source. Cut-off read from the data, not from the text of the source: active = GI50 up to about 1.1 µM and inactive = higher. Some results are limits rather than exact numbers.

Regarding `CCOC(=O)NC(=O)c1cn(CCN2CCNCC2)c(=O)[nH]c1=O`, the GI50 in experiment [1] was > 100 µM (inactive); in [2], > 100 µM (inactive); in experiment [3], > 100 µM (inactive); in [4], over 100 µM; in experiment [5] it was > 100 µM (inactive); in experiment [6] it was > 100 µM (inactive). The GI50 in experiment [7], in experiment [8], in experiment [9], in experiment [10], in [11] and in [12] was > 100 µM (inactive) each time. The GI50 in [13], in experiment [14], in experiment [15] and in experiment [16] was > 100 µM (inactive) in each case.
Take `CCOC(=O)[C@H]1Nc2ccc(Cl)cc2[C@H]2CCC[C@@H]12`: the GI50 was 86.9 µM (inactive) in [1]; > 100 µM (inactive) in [2]; > 100 µM (inactive) in experiment [3]; over 100 µM in [4]; > 100 µM (inactive) in [5]; > 100 µM (inactive) in experiment [7]. Also, the GI50 in experiment [8] is > 100 µM (inactive); in [9], > 100 µM (inactive); in experiment [10], 31.5 µM (inactive); in experiment [11], 56.9 µM (inactive); in experiment [12], > 100 µM (inactive); in experiment [13], > 100 µM (inactive). Moreover, the GI50 in [14] is > 100 µM (inactive); in experiment [15], 71.6 µM (inactive); in experiment [16], > 100 µM (inactive); in experiment [17], 22 µM (inactive).
As for `O=S1(=O)CS(=O)(=O)OCCCCCO1`, the GI50 was > 100 µM (inactive) in experiment [18]; > 100 µM (inactive) in experiment [1]; > 100 µM (inactive) in experiment [2]; > 100 µM (inactive) in experiment [3]; over 100 µM in experiment [4]; > 100 µM (inactive) in [6]. Besides, the GI50 in experiment [7], in [8], in experiment [9], in [10], in experiment [11] and in experiment [12] was > 100 µM (inactive) in each case. In addition, the GI50 in experiment [13], in experiment [14] and in experiment [17] was > 100 µM (inactive) each time.
For the compound `Nc1ccc(C2=Nc3ccccc3SC(c3ccccc3O)C2)cc1` (configuration not stated), the GI50 in experiment [18] is 7.13 µM (inactive); in [1] it was 58.9 µM (inactive); in experiment [2], 45.1 µM (inactive); in experiment [4], 27.3 µM; in experiment [5], 64 µM (inactive); in experiment [7], 46.6 µM (inactive). Also, the GI50 in [8] was 22 µM (inactive); in experiment [9], 54.6 µM (inactive); in experiment [10], 21.3 µM (inactive); in [11] it was 51.6 µM (inactive); in experiment [12] it was 42.1 µM (inactive); in experiment [13], 17.5 µM (inactive). Besides, the figures for the GI50 in [14], in [15] and in experiment [17] were 33.7 µM (inactive), 26.1 µM (inactive) and 51.9 µM (inactive), respectively.
Consider `COc1ccc(/C(Cl)=C(\C=O)c2ccc(Br)cc2)cc1OC`, for which the GI50 in experiment [18] is 88.9 µM (inactive); in experiment [1] it was > 100 µM (inactive); in [2], > 100 µM (inactive); in [4] it was 25.1 µM; in experiment [5], 34.8 µM (inactive); in experiment [6], 17.7 µM (inactive). Besides, the GI50 in [7] was > 100 µM (inactive); in experiment [8] it was > 100 µM (inactive); in [9], > 100 µM (inactive); in experiment [10], 51.8 µM (inactive); in experiment [11], > 100 µM (inactive); in experiment [12], 31.9 µM (inactive). The GI50 was 3.69 µM (inactive) in experiment [13], 23.2 µM (inactive) in [14], > 100 µM (inactive) in [15] and > 100 µM (inactive) in [17].
Consider `Nc1ncnc2c1ncn2C1OC(CSC(F)F)C(O)C1O` (configuration not stated), for which the GI50 in experiment [18] was > 100 µM (inactive); in experiment [1], > 100 µM (inactive); in experiment [2], > 100 µM (inactive); in experiment [3], > 100 µM (inactive); in [4] it was over 100 µM; in experiment [5] it was > 100 µM (inactive). For the same compound, the GI50 in experiment [6] was > 100 µM (inactive); in experiment [7], > 100 µM (inactive); in [8], > 100 µM (inactive); in experiment [9], > 100 µM (inactive); in [10], 86.3 µM (inactive); in experiment [11], > 100 µM (inactive). Also, the GI50 in [12], in experiment [13], in [14], in experiment [15] and in experiment [17] was > 100 µM (inactive) in each case.
In the case of `Cc1ccc(NC(=O)CCc2nnc(N)o2)cc1`, the GI50 in [18] was > 100 µM (inactive); in experiment [1] it was > 100 µM (inactive); in [2], > 100 µM (inactive); in [3] it was > 100 µM (inactive); in experiment [4] it was over 100 µM; in [5] it was > 100 µM (inactive). Besides, the GI50 in experiment [6], in experiment [7], in [8], in experiment [9], in [10] and in [11] was > 100 µM (inactive) throughout. Besides, the GI50 in [12], in experiment [13], in experiment [14], in experiment [15] and in experiment [17] was > 100 µM (inactive) throughout.
Regarding `Cc1c2cc[n+](C)cc2c(C)c2c1[nH]c1ccc(Oc3ccccc3)cc12`, the GI50 in [1] is 1.89 µM (inactive); in [2], 1.1 µM (active); in [3], 1.54 µM (inactive); in experiment [4] it was 3.05 µM; in [5], 0.578 µM (active); in [6], 1.28 µM (inactive). In addition, the GI50 in experiment [7] was 2.23 µM (inactive); in [8], 0.282 µM (active); in experiment [9] it was 4.48 µM (inactive); in experiment [11], 1.4 µM (inactive); in experiment [12], 0.553 µM (active); in [13] it was 1.62 µM (inactive). Besides, the values for the GI50 in experiment [14], in [15] and in [17] were 0.738 µM (active), 0.794 µM (active) and 1.18 µM (inactive), respectively.
Take `CC(=O)OC1C[C@H]2C(OC(=O)c3ccccc3)C3C4(OC(C)=O)COC4C[C@H](OC(C)=O)[C@@]3(C)C(OC(C)=O)[C@H](OC(C)=O)C(=C1C)C2(C)C` (some centres not stated): the GI50 is 24.4 µM (inactive) in [18]; 13.5 µM (inactive) in [1]; 42.7 µM (inactive) in [2]; 40 µM (inactive) in experiment [3]; 47 µM in [4]; 40 µM (inactive) in experiment [5]. For the same compound, the GI50 in experiment [7] was 41.8 µM (inactive); in experiment [8], 22.3 µM (inactive); in [9], 23.2 µM (inactive); in [10] it was 20.4 µM (inactive); in [11], 36.7 µM (inactive); in [12] it was 41.2 µM (inactive). Moreover, the GI50 is 20.4 µM (inactive) in experiment [13], 24.9 µM (inactive) in [14], 26.3 µM (inactive) in [15] and 58.6 µM (inactive) in experiment [17].
`CC(=O)OC1[C@@H](OC(C)=O)CN(OCc2ccccc2)C[C@H]1OC(C)=O` (some centres not stated): the GI50 is > 100 µM (inactive) in [18]; > 100 µM (inactive) in experiment [1]; > 100 µM (inactive) in [2]; > 100 µM (inactive) in [3]; over 100 µM in [4]; > 100 µM (inactive) in experiment [5]. For the same compound, the GI50 in experiment [6], in experiment [7], in experiment [9], in [19], in [20] and in [10] was > 100 µM (inactive) each time. The GI50 in experiment [11], in experiment [12], in [13], in experiment [14], in [15] and in experiment [16] was > 100 µM (inactive) in each case. In addition, the GI50 in [17] was > 100 µM (inactive).
`CC(=O)Nc1ccc(C(=O)NN2C(=O)C(Cl)C2c2ccc([N+](=O)[O-])cc2)cc1` (configuration not stated): the GI50 is > 100 µM (inactive) in experiment [18]; > 100 µM (inactive) in [1]; > 100 µM (inactive) in experiment [2]; > 100 µM (inactive) in [3]; over 100 µM in experiment [4]; > 100 µM (inactive) in [5]. Also, the GI50 in experiment [6], in [7], in experiment [8], in experiment [9], in experiment [10] and in experiment [11] was > 100 µM (inactive) each time. Moreover, the GI50 in experiment [12], in [14], in experiment [15] and in [17] was > 100 µM (inactive) in each case.
With `COc1ccc(/N=N/C(=N\c2ccc(Cl)cc2)c2ccc(N(CCC#N)CCC#N)cc2)cc1`, the GI50 in [18] is 10.4 µM (inactive); in experiment [1], 27.2 µM (inactive); in experiment [2], 5.19 µM (inactive); in experiment [3] it was 43.9 µM (inactive); in experiment [4], 2.39 µM; in experiment [5], 79.3 µM (inactive). In addition, the GI50 in experiment [6] is 33.2 µM (inactive); in [7] it was 56.4 µM (inactive); in experiment [9], 57.5 µM (inactive); in experiment [19], 8.05 µM (inactive); in [20], 14.8 µM (inactive); in [10] it was 17.4 µM (inactive). The GI50 is 10.1 µM (inactive) in [11]; > 100 µM (inactive) in experiment [12]; 34.5 µM (inactive) in experiment [13]; 41.3 µM (inactive) in experiment [14]; 0.755 µM (active) in [15]; 0.834 µM (active) in [16]. In addition, the GI50 in experiment [17] was 11.4 µM (inactive).
